Reference: ChEMBL document CHEMBL5518235, “Identification of Novel Series of Potent and Selective Relaxin Family Peptide Receptor 1 (RXFP1) Agonists” (J Med Chem, 2024)
Values after ≈ are worked out from the molar mass of the structure shown. Active and inactive are the calls of the source. The rule behind the calls is not given here.

Legend:
[1] = Genotoxicity in human A549 upto 1000 uM by micronucleus test; format: toxicity, cell-based; settings: a549, 1000 µM
[2] = Metabolic stability in Han Wistar rat hepatocytes assessed as intrinsic clearance measured per 10^6 cells at 1 uM after 120 mins by LC-MS/MS analysis; format: ADME, cell-based, Hepatocyte; settings: read-out: CLH
[3] = Unbound Cmax in Sprague-Dawley rat at 1.5 mg/kg, iv administered via bolus followed by 9.0 mg/kg, iv administered via infusion for 3 hrs and measured 1 hrs post washout by LC-MS/MS analysis; format: ADME, organism-based; settings: in vivo
[4] = target: T1, Relaxin receptor 1 (Rattus norvegicus) (UniProt Q6R6I6); test: Agonist activity at rat RXFP1 expressed in T-Rex-CHO-K1 cells assessed as stimulation of cAMP production by measuring maximal efficacy incubated for 60 mins by HTRF assay relative to control; format: functional, cell-based; settings: filed as agonist
T1 sequence (whole entry): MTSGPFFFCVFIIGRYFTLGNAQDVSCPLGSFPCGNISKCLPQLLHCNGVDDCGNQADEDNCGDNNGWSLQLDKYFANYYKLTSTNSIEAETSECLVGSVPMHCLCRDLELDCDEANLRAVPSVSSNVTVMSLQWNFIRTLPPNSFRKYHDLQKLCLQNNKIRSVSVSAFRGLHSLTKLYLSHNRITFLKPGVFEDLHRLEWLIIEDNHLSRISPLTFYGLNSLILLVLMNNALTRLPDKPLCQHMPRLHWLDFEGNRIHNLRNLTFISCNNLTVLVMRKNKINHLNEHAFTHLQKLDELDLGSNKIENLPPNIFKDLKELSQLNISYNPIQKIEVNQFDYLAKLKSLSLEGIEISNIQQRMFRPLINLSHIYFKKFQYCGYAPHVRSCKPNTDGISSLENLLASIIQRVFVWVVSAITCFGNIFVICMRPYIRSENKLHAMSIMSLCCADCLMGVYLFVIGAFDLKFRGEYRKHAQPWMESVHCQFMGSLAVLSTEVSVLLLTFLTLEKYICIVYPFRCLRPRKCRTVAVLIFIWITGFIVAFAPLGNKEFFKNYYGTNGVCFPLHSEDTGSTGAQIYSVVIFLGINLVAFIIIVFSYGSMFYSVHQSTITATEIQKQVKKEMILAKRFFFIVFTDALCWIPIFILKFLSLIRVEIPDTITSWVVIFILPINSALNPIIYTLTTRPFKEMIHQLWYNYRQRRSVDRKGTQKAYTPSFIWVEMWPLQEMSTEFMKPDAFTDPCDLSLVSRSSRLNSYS

[5] = target: Sodium channel protein type 5 subunit alpha (Homo sapiens, UniProt Q14524); test: Inhibition of human Nav1.5 by automated electrophysiology recording; format: toxicity
[6] = target: T1, Relaxin receptor 1 (Rattus norvegicus); test: Agonist activity at rat RXFP1 expressed in T-Rex-CHO-K1 cells assessed as stimulation of cAMP production by measuring unbound concentration incubated for 60 mins by HTRF assay; format: functional, cell-based; settings: filed as agonist
[7] = target: T1, Relaxin receptor 1 (Rattus norvegicus); test: In vivo agonist activity at RXFP1 in Sprague-Dawley rat assessed as hemodynamic effect by measuring increase in blood pressure at 1.5 mg/kg, iv administered via bolus followed by 9.0 mg/kg, iv administered via infusion for 3 hrs and measured 1 hrs post washout; format: functional, organism-based
[8] = Volume of distribution at steady state in Han Wistar rat at 0.73 micromol/kg, iv by LC-MS/MS analysis; format: ADME, organism-based; settings: in vivo, dose 0.73 µmol/kg, read-out: Vdss
[9] = target: Voltage-gated inwardly rectifying potassium channel KCNH2 (Homo sapiens, UniProt Q12809); test: Inhibition of human ERG by automated electrophysiology recording; format: toxicity
[10] = Cytotoxicity against human HepG2 cells cultured under galactose condition assessed as reduction in cell viability; format: toxicity, cell-based
[11] = target: T2, Relaxin receptor 1 (Homo sapiens, UniProt Q9HBX9); test: Agonist activity at human RXFP1 expressed in T-Rex-CHO-K1 cells assessed as stimulation of cAMP production by measuring unbound concentration incubated for 45 mins by HTRF assay
T2 sequence (Q9HBX9 whole entry): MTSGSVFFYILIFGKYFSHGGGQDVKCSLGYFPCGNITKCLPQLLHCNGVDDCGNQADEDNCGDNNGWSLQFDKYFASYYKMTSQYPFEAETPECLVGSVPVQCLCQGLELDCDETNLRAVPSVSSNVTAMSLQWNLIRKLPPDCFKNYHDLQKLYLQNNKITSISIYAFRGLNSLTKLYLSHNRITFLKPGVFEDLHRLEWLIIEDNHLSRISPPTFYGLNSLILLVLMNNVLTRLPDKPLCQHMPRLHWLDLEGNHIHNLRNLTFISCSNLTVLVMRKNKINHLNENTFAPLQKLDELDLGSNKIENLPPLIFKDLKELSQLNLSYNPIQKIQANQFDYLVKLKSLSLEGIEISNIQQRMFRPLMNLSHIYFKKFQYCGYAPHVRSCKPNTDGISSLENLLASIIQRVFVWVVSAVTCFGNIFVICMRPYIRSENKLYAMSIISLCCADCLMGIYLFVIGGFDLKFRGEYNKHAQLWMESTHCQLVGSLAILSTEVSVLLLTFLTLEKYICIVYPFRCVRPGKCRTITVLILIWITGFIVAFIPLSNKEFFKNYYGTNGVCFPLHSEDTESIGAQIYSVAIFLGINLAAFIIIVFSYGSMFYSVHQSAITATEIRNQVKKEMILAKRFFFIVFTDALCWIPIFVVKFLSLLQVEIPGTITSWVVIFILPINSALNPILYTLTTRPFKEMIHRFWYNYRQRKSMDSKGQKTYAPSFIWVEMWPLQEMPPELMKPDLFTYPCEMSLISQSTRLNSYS

[12] = Metabolic stability in Han Wistar rat hepatocytes assessed as unbound intrinsic clearance measured […] at 1 uM after 120 mins by LC-MS/MS analysis; format: ADME, cell-based, Hepatocyte; settings: 2 h
[13] = Lipophilicity, logD of the compound in 1-octanol and phosphate buffer at pH 7.4 incubated for 3 hrs by shake flask method based LC/MS/MS analysis; format: physicochemical; settings: 1-octanol/phosphate buffer, pH 7.4
[14] = target: T1, Relaxin receptor 1 (Rattus norvegicus); test: In vivo agonist activity at RXFP1 in Sprague-Dawley rat assessed as hemodynamic effect by measuring increase in heart rate at 1.5 mg/kg, iv administered via bolus followed by 9.0 mg/kg, iv administered via infusion for 3 hrs and measured 1 hrs post washout; format: functional, organism-based
[15] = target: Lutropin-choriogonadotropic hormone receptor (Homo sapiens, UniProt P22888); test: Agonist activity at LSHR (unknown origin) by arrestin technology based assay; format: functional
[16] = target: T3, Relaxin receptor 1 (Rattus norvegicus, UniProt Q6R6I6); test: Agonist activity at rat RXFP1 expressed in T-Rex-CHO-K1 cells assessed as stimulation of cAMP production incubated for 60 mins by HTRF assay; format: functional, cell-based
T3 sequence (Q6R6I6 whole entry): T1 sequence (whole entry)

[17] = Solubility of compound in FaSSIF at pH 6.5; format: ADME
[18] = target: Bile salt export pump (Homo sapiens, UniProt O95342); test: Inhibition of BSEP (unknown origin) by membrane vesicle assay; format: toxicity
Bile salt export pump, sequence (O95342 whole entry): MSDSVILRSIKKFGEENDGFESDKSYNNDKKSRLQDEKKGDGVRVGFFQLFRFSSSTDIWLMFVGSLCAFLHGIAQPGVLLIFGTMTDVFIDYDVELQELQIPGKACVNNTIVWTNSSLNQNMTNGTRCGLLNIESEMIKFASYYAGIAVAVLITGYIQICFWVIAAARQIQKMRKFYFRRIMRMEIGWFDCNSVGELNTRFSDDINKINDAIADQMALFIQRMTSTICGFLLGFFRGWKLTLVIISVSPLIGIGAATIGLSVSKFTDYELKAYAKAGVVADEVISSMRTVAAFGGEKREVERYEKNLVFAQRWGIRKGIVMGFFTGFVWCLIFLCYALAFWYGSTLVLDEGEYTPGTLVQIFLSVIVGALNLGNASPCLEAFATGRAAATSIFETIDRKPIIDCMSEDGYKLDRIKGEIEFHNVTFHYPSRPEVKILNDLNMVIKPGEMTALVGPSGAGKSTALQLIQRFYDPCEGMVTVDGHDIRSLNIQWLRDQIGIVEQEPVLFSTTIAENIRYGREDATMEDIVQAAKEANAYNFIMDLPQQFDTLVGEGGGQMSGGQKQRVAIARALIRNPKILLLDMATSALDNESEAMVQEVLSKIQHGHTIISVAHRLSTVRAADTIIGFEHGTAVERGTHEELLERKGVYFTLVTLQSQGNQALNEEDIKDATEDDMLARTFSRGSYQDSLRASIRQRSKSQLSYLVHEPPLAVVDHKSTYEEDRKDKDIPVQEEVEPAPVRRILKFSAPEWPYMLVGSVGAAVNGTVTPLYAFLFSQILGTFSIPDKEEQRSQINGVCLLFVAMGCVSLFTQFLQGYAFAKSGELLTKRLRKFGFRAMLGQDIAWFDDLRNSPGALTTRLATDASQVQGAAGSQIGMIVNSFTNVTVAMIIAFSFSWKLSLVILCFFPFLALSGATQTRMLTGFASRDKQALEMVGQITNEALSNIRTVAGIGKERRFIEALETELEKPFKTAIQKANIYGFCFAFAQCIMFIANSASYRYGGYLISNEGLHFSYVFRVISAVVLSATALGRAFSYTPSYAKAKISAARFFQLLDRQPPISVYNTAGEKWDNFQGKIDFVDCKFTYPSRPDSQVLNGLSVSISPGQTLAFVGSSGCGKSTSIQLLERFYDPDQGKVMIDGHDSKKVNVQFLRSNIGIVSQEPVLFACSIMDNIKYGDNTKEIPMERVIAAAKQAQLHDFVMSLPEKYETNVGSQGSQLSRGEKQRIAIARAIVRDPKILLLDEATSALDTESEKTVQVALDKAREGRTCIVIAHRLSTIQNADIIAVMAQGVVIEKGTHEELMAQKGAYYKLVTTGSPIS

Voltage-gated inwardly rectifying potassium channel KCNH2, sequence (Q12809 whole entry): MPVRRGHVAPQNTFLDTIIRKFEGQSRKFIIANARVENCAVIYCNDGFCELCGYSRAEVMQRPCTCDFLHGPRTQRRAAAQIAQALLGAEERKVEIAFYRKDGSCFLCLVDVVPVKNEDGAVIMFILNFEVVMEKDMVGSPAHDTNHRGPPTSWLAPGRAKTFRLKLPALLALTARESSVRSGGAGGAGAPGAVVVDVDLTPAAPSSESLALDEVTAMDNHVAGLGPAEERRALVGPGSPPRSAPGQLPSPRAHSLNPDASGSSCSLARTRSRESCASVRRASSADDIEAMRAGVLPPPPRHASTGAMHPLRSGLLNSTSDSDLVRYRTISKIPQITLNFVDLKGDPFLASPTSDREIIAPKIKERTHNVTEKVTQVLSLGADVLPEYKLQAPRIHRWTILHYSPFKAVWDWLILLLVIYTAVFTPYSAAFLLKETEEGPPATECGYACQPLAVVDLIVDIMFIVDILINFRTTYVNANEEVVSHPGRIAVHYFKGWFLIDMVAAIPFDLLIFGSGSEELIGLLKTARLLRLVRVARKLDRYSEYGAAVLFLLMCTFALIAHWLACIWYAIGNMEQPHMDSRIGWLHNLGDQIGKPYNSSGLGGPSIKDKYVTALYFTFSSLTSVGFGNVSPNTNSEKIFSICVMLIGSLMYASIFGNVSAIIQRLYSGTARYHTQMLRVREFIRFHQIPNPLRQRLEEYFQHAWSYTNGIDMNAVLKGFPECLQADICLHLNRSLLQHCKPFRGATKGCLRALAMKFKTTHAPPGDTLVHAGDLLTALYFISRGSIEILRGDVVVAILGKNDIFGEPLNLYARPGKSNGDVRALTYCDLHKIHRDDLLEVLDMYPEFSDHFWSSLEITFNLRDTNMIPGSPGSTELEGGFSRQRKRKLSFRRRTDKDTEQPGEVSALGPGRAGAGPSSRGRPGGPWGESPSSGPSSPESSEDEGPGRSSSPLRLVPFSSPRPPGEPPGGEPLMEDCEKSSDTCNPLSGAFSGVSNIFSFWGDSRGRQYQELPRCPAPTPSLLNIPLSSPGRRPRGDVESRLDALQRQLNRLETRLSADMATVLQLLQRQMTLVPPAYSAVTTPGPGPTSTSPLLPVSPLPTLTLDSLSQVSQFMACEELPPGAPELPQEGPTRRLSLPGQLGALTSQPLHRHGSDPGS
Lutropin-choriogonadotropic hormone receptor, sequence (P22888 whole entry): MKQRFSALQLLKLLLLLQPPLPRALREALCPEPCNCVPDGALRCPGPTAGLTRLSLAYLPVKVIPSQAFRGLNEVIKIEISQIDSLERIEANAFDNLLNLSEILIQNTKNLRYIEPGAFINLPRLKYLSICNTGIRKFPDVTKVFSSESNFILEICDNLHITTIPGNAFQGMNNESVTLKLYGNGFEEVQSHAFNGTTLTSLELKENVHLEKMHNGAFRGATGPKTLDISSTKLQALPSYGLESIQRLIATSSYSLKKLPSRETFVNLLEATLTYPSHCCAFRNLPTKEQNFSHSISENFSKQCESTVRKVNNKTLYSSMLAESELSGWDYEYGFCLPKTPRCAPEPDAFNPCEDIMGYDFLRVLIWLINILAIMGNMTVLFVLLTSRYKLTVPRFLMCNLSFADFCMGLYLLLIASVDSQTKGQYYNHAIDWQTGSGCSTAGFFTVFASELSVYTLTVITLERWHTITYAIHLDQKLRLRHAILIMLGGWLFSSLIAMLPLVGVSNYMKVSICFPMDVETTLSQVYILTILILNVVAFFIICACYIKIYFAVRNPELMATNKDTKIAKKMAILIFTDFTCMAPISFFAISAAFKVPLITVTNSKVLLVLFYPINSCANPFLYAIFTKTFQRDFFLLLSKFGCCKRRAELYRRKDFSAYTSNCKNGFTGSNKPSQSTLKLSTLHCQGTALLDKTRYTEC

SMILES: COc1cc(F)c(O[C@H]2CC[C@@](C)(C(=O)O)CC2)cc1C(=O)N[C@@H]1[C@H]2CC[C@H](C2)[C@@H]1C(=O)Nc1ccc(F)c(S(F)(F)(F)(F)F)c1
- Activity [1]: Non-Toxic
- hepatocyte CLint at 1 µM [2]: 24 µL/min/1e6 cells
- fCmax [3]: 10 nM
- Emax [4]: 139%
- IC50 [5]: 21 µM
- fEC50 [6]: 17 nM
- Activity [7]: Active
- Vd [8]: 2.3 L/kg
- IC50 [9]: > 39 µM
- IC50 [10]: 37 µM
- EC50 [11]: < 0.0316 nM
- CL free [12]: 2.4 µL/min
- logD at 3 h [13]: 4.9
- Activity [14]: Active
- EC50 [15]: 46 µM
- EC50 [16]: 0.2 µM
- solubility [17]: 6.3 µM (≈ 4.3 µg/mL)
- IC50 [18]: 23 µM
